In test [1] the test system is MUC1 expression in MCF10A cells. Put plainly: MUC1 expression by immunoblot of whole-cell lysates after stimulation. In kind it is cell-based. How it is done: FIG. 2A is a pair of photographs of immunoblots depicting the induction of MUC1 expression following heregulin (HRG) treatment. MCF10A cells were cultured without (“0”) and with HRG (20 ng/mL) for 24 (“24”) and 48 (“48”) hours. Cells were harvested at the indicated time points and lysed for western blot analysis. Whole-cell lysates were subjected to sodium dodecyl sulfate polyacrylamide gel electrophoresis (SDS-PAGE) under reducing conditions and proteins were detected (immunoblotted, “IB”) using antibodies specific for MUC1-C and β-actin (top and bottom photographs, respectively). The relative positions (e.g., the molecular weights) of the proteins are reported in kilodaltons (kDa) and indicated to the left of each of the immunoblots (e.g., 25 kDa or 45 kDa). “HRG” indicates treatment with heregulin.
FIG. 2C is a photograph of an immunoblot depicting the induction of MUC1 expression following IL-6 treatment. MCF10A cells were treated without (“0”) and with IL-6 (20 ng/mL) and then cultured at 37° C. for 24 (“24”) and 48 (“48”) hours. Cells were harvested at the indicated time points and lysed for western blot analysis. Whole-cell lysates were subjected to SDS-PAGE under reducing conditions and proteins were detected (immunoblotted, “IB”) using antibodies specific for MUC1-C. The relative positions (e.g., the molecular weights) of the proteins are reported in kilodaltons (kDa) and indicated to the left of the immunoblot. “IL-6” indicates IL-6 treatment.
Heregulin treatment of cells results in (i) activation of ErbB2, ErbB3, and ErbB4 and (ii) induction of the formation of complexes between these receptors and MUC1. To assess if MUC1 is regulated by heregulin in normal cells, the induction of MUC1 expression by heregulin treatment was assessed in the immortalized, but non-cancer breast cell line MCF10A. […] As a control for loading, β-actin was detected using anti-β-actin (Sigma, St. Louis, Mo.). […]
On the technique in general: Immunoblotting shows a protein as a band on a membrane.

The target of another test is GST-STAT3 (Homo sapiens, UniProt P40763). Put plainly: In vitro GST pull-down binding assay. Conditions: purified His-tagged MUC1-CD, GST as control, immunoblot. The procedure:
The binding of MUC1 to HSF1 could be direct or indirect, for example, through a third protein. To determine if the interaction between MUC1 and HSF1 is a direct, physical interaction, in vitro binding assays was performed. GST- and GST-STAT3 polypeptides were incubated with purified His-tagged MUC1-CD (similar to GST-HSF1-His-MUC1 experiments described above). The protein mixtures were then incubated with glutathione beads, which bind to the GST proteins and associated binding partners if present. The glutathione bead adsorbates were washed and immunoblotted with antibodies specific for His tags or to MUC1-C (as described above).

Sequence of GST-STAT3 (P40763 whole entry): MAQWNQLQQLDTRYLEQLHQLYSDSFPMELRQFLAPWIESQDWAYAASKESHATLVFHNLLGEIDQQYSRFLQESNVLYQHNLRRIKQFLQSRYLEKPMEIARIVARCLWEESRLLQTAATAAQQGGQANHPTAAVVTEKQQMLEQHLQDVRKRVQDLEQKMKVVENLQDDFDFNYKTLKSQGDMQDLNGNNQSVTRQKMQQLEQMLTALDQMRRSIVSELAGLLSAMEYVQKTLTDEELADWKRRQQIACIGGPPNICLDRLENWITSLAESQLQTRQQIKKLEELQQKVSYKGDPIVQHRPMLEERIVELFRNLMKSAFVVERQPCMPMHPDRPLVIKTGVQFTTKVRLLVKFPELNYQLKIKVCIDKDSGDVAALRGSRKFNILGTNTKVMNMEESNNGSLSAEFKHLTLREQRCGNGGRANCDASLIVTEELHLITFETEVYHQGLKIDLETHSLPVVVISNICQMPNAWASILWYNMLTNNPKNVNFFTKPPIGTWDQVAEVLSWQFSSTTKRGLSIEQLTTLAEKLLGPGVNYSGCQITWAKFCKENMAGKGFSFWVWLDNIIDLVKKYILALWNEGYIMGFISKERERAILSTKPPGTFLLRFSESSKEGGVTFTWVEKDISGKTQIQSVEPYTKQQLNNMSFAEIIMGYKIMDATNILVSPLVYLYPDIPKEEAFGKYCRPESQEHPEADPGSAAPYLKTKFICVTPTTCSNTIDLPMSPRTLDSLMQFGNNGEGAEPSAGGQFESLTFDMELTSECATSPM

As for “IL-6: inflammatory cytokine IL-6 (R&D Systems) that activates STAT3 through the Janus kinases”, the MUC1 expression entry in test [1] (0.1% serum overnight, 20 ng/mL IL-6, expected result) was “induce both STAT3 phosphorylation (activation) and MUC1 expression”; in test [1] (IL-6 20 ng/mL, 24 and 48 hours (FIG. 2C)) it was “induces MUC1 expression”.

B1: His-tagged MUC1: purified His-tagged MUC1 cytoplasmic domain (MUC1-CD, SEQ ID NO:2) (protein, listed as Homo sapiens)
chain: CQCRRKNYGQLDIFPARDTYHPMSEYPTYHTHGRYVPPSSTDRSPYEKVSAGNGGSSLSYTNPAVAAASANL
modifications: His tag
As to B1, the “binding to GST-STAT3 (glutathione bead adsorbates)” value with GST-STAT3 is on record as “present in GST-STAT3 adsorbates but not GST-adsorbates”.

B2: HRG: heregulin (HRG) (Calbiochem-Novabiochem), ligand activating ErbB2, ErbB3 and ErbB4 (protein, listed as Homo sapiens)
chain: MEIYSPDMSEVAAERSSSPSTQLSADPSLDGLPAAEDMPEPQTEDGRTPGLVGLAVPCCACLEAERLRGCLNSEKICIVPILACLVSLCLCIAGLKWVFVDKIFEYDSPTHLDPGGLGQDPIISLDATAASAVWVSSEAYTSPVSRAQSESEVQVTVQGDKAVVSFEPSAAPTPKNRIFAFSFLPSTAPSFPSPTRNPEVRTPKSATQPQTTETNLQTAPKLSTSTSTTGTSHLVKCAEKEKTFCVNGGECFMVKDLSNPSRYLCKCPNEFTGDRCQNYVMASFYSTSTPFLSLPE
As for B2, in test [1] (20 ng/mL HRG, anti-MUC1-C immunoblot (FIG. 2A)), the MUC1 protein expression entry is given as “increase in MUC1 protein expression”.

The values above are taken from US7972870B2, “Methods and compositions relating to the regulation of MUC1 by HSF1 and STAT3” (Dana-Farber Cancer Institute, Inc., priority 2007, dated 2011).
